{
  "source": "ChEMBL document CHEMBL5370659",
  "about": "(J Med Chem, 2023)",
  "key": {"[1]": {"molecular_target": "T1, Tryptophan 5-hydroxylase 1 (Homo sapiens, UniProt P17752)", "T1 sequence (P17752 whole entry)": "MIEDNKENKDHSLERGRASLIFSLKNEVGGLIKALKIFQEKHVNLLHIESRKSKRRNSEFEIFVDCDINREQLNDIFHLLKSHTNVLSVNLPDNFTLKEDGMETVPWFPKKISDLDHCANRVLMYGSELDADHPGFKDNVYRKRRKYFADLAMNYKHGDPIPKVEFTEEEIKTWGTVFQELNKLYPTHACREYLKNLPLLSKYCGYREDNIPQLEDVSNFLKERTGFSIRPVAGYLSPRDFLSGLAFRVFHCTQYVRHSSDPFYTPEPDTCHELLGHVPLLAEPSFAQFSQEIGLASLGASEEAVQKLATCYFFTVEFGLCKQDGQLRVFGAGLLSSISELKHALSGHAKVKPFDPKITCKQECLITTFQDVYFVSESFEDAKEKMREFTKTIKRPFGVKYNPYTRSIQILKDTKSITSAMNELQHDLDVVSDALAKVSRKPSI", "assay": "Inhibition of recombinant MBP-tagged full length human THP1 using L-Trp as substrate assessed as formation of 5-HTP by measuring fluorescent property"}, "[2]": {"molecular_target": "T2, Tryptophan 5-hydroxylase 2 (Homo sapiens, UniProt Q8IWU9)", "T2 sequence (Q8IWU9 whole entry)": "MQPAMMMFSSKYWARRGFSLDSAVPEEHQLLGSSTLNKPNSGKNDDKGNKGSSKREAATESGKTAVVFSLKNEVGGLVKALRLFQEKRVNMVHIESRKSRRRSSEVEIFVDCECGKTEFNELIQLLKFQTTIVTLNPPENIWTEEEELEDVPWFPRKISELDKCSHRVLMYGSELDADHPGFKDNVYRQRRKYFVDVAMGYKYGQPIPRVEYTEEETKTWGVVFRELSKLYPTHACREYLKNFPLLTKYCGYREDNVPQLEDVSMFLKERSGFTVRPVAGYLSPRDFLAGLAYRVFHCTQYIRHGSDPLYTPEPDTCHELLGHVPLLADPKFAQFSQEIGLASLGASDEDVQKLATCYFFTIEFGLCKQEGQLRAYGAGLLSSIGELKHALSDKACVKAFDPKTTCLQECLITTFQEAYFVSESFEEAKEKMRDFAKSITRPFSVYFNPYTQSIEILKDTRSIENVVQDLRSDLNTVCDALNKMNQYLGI", "assay": "Inhibition of recombinant MBP-tagged full length human THP2 using L-Trp as substrate assessed as formation of 5-HTP by measuring fluorescent property"}, "[3]": {"assay": "Aqueous solubility of the compound in pH 7.4 PBS buffer by HPLC-UV analysis", "assay_type": "physicochemical"}, "[4]": {"assay": "Plasma protein binding in human", "assay_type": "ADME, cell-free", "conditions": "read-out: PPB (converted)"}, "[5]": {"assay": "Plasma protein binding in rat", "assay_type": "ADME, cell-free", "conditions": "read-out: PPB (converted)"}, "[6]": {"assay": "Apparent permeability across apical to basal side in human Caco-2 cells at pH 6.5/7.4 measured at 5 uM by LC-MS/MS analysis", "assay_type": "ADME, cell-based", "conditions": "Caco-2, pH 6.5"}, "[7]": {"assay": "Apparent permeability across basal to apical side in human Caco-2 cells at pH 6.5/7.4 measured at 5 uM by LC-MS/MS analysis", "assay_type": "ADME, cell-based", "conditions": "Caco-2, pH 6.5"}, "[8]": {"assay": "Metabolic stability in human hepatocytes assessed as half life", "assay_type": "ADME, cell-based, Hepatocyte"}, "[9]": {"assay": "Metabolic stability in rat hepatocytes assessed as half life", "assay_type": "ADME, cell-based, Hepatocyte"}, "[10]": {"assay": "Metabolic stability in human hepatocytes assessed as intrinsic clearance", "assay_type": "ADME, cell-based, Hepatocyte", "conditions": "read-out: CLH"}, "[11]": {"assay": "Metabolic stability in rat hepatocytes assessed as intrinsic clearance", "assay_type": "ADME, cell-based, Hepatocyte", "conditions": "read-out: CLH"}, "[12]": {"assay": "Permeability across apical to basal side in MDCK-MDR1 cells at pH 6.5/7.4 measured at 5 uM by LC-MS/MS analysis", "assay_type": "ADME, cell-based, Canis lupus familiaris", "conditions": "dog, MDCK-MDR1, pH 6.5"}, "[13]": {"assay": "Permeability across basal to apical side in MDCK-MDR1 cells at pH 6.5/7.4 measured at 5 uM by LC-MS/MS analysis", "assay_type": "ADME, cell-based, Canis lupus familiaris", "conditions": "dog, MDCK-MDR1, pH 6.5"}, "[14]": {"assay": "Brain homogenate binding in mouse", "assay_type": "ADME, tissue-based"}, "[15]": {"assay": "Brain homogenate binding in rat", "assay_type": "ADME, tissue-based"}, "[16]": {"assay": "Solubility in simulated intestinal fluid by HPLC-UV analysis", "assay_type": "physicochemical"}, "[17]": {"assay": "Solubility in simulated gastric fluid by HPLC-UV analysis", "assay_type": "physicochemical"}},
  "data": [
    {"smiles": "CCn1c(=O)[nH]c(=O)c2c1nc(Cc1cn3cc(Cl)sc3n1)n2CC1COC1", "values": [
      {"measurement": "IC50", "setting": "[1]", "value": 118, "unit": "nM"},
      {"measurement": "IC50", "setting": "[2]", "value": 37, "unit": "nM"},
      {"measurement": "solubility", "setting": "[3]", "value": 200, "unit": "µM"},
      {"measurement": "fraction unbound", "setting": "[4]", "value": 0.38},
      {"measurement": "fraction unbound", "setting": "[5]", "value": 0.5},
      {"measurement": "Papp A→B at 5 µM", "setting": "[6]", "value": 0.26, "unit": "×10⁻⁶ cm/s"},
      {"measurement": "Papp B→A at 5 µM", "setting": "[7]", "value": 29, "unit": "×10⁻⁶ cm/s"},
      {"measurement": "half-life", "setting": "[8]", "value": "> 2.42", "unit": "h"},
      {"measurement": "half-life", "setting": "[9]", "value": "> 2.42", "unit": "h"},
      {"measurement": "CLint scaled", "setting": "[10]", "value": "< 8.6", "unit": "mL/min/kg"},
      {"measurement": "CLint scaled", "setting": "[11]", "value": "< 17", "unit": "mL/min/kg"},
      {"measurement": "Papp A→B at 5 µM", "setting": "[12]", "value": "< 0.64", "unit": "×10⁻⁶ cm/s"},
      {"measurement": "Papp B→A at 5 µM", "setting": "[13]", "value": 30, "unit": "×10⁻⁶ cm/s"},
      {"measurement": "Activity", "setting": "[14]", "value": "< 1", "unit": "%"},
      {"measurement": "Activity", "setting": "[15]", "value": "< 1", "unit": "%"}
    ]},
    {"smiles": "CCn1c(=O)[nH]c(=O)c2c1nc(Cc1cn3cc(C)sc3n1)n2C(C)C", "values": [
      {"measurement": "IC50", "setting": "[1]", "value": 228, "unit": "nM"},
      {"measurement": "IC50", "setting": "[2]", "value": 24, "unit": "nM"}
    ]},
    {"smiles": "CCn1c(=O)[nH]c(=O)c2c1nc(Cc1cn3cc(C)sc3n1)n2CC(=O)O", "values": [
      {"measurement": "IC50", "setting": "[1]", "value": "> 10000", "unit": "nM"},
      {"measurement": "IC50", "setting": "[2]", "value": "> 10000", "unit": "nM"}
    ]},
    {"smiles": "CCn1c(=O)[nH]c(=O)c2c1nc(Cc1cn3c(n1)CCCC3)n2Cc1cccc(C(=O)NC[C@H](N)C(=O)O)c1", "values": [
      {"measurement": "IC50", "setting": "[1]", "value": 1670, "unit": "nM"},
      {"measurement": "IC50", "setting": "[2]", "value": 176, "unit": "nM"}
    ]},
    {"smiles": "CCn1c(=O)[nH]c(=O)c2c1nc(Cc1cn3c(n1)CCCC3)n2CC1CCC1", "values": [
      {"measurement": "IC50", "setting": "[1]", "value": 394, "unit": "nM"},
      {"measurement": "IC50", "setting": "[2]", "value": 32, "unit": "nM"}
    ]},
    {"smiles": "CCn1c(=O)[nH]c(=O)c2c1nc(Cc1cn3c(n1)CCCC3)n2Cc1cccc(C(=O)OC)c1", "values": [
      {"measurement": "IC50", "setting": "[1]", "value": 243, "unit": "nM"},
      {"measurement": "IC50", "setting": "[2]", "value": 25, "unit": "nM"}
    ]},
    {"smiles": "CCn1c(=O)[nH]c(=O)c2c1nc(Cc1cn3c(n1)CCCC3)n2Cc1cccc(C(=O)O)c1", "values": [
      {"measurement": "IC50", "setting": "[1]", "value": 3270, "unit": "nM"},
      {"measurement": "IC50", "setting": "[2]", "value": 307, "unit": "nM"}
    ]},
    {"smiles": "CCn1c(=O)[nH]c(=O)c2c1nc(Cc1cn3cc(C)sc3n1)n2CC1CCC1", "values": [
      {"measurement": "IC50", "setting": "[1]", "value": 47, "unit": "nM"},
      {"measurement": "IC50", "setting": "[2]", "value": 31, "unit": "nM"}
    ]},
    {"smiles": "CCn1c(=O)[nH]c(=O)c2c1nc(Cc1cn3cc(C)sc3n1)n2Cc1cccc(C(=O)OC)c1", "values": [
      {"measurement": "IC50", "setting": "[1]", "value": 66, "unit": "nM"},
      {"measurement": "IC50", "setting": "[2]", "value": 22, "unit": "nM"}
    ]},
    {"smiles": "CCOC(=O)Cn1c(Cc2cn3cc(C)sc3n2)nc2c1c(=O)[nH]c(=O)n2CC", "values": [
      {"measurement": "IC50", "setting": "[1]", "value": 300, "unit": "nM"},
      {"measurement": "IC50", "setting": "[2]", "value": 37, "unit": "nM"}
    ]},
    {"smiles": "CCn1c(=O)[nH]c(=O)c2c1nc(Cc1cn3cc(C)sc3n1)n2CCC=C(C)C", "values": [
      {"measurement": "IC50", "setting": "[1]", "value": 676, "unit": "nM"},
      {"measurement": "IC50", "setting": "[2]", "value": 116, "unit": "nM"}
    ]},
    {"smiles": "CCn1c(=O)[nH]c(=O)c2c1nc(Cc1cn3cc(C)sc3n1)n2Cc1cc(C)cc(C)c1", "values": [
      {"measurement": "IC50", "setting": "[1]", "value": 113, "unit": "nM"},
      {"measurement": "IC50", "setting": "[2]", "value": 34, "unit": "nM"}
    ]},
    {"smiles": "CCn1c(=O)[nH]c(=O)c2c1nc(Cc1cn3cc(C)sc3n1)n2CC=C(C)C", "values": [
      {"measurement": "IC50", "setting": "[1]", "value": 81, "unit": "nM"},
      {"measurement": "IC50", "setting": "[2]", "value": 32, "unit": "nM"}
    ]},
    {"smiles": "CCn1c(=O)[nH]c(=O)c2c1nc(Cc1cn3cc(C)sc3n1)n2CC1CCCCC1", "values": [
      {"measurement": "IC50", "setting": "[1]", "value": 394, "unit": "nM"},
      {"measurement": "IC50", "setting": "[2]", "value": 152, "unit": "nM"}
    ]},
    {"smiles": "CCn1c(=O)[nH]c(=O)c2c1nc(Cc1cn3cc(C)sc3n1)n2Cc1cccc(C)n1", "values": [
      {"measurement": "IC50", "setting": "[1]", "value": 196, "unit": "nM"},
      {"measurement": "IC50", "setting": "[2]", "value": 24, "unit": "nM"}
    ]},
    {"smiles": "CCOC(=O)CCCn1c(Cc2cn3cc(C)sc3n2)nc2c1c(=O)[nH]c(=O)n2CC", "values": [
      {"measurement": "IC50", "setting": "[1]", "value": 107, "unit": "nM"},
      {"measurement": "IC50", "setting": "[2]", "value": 26, "unit": "nM"}
    ]},
    {"smiles": "CCn1c(=O)[nH]c(=O)c2c1nc(Cc1cn3cc(C)sc3n1)n2CC1CCN(C(C)C)CC1", "values": [
      {"measurement": "IC50", "setting": "[1]", "value": "> 10000", "unit": "nM"},
      {"measurement": "IC50", "setting": "[2]", "value": "> 10000", "unit": "nM"}
    ]},
    {"smiles": "CCn1c(=O)[nH]c(=O)c2c1nc(Cc1cn3c(n1)CCCC3)n2Cc1ccccc1", "values": [
      {"measurement": "solubility", "setting": "[16]", "value": "> 200", "unit": "µM"},
      {"measurement": "solubility", "setting": "[3]", "value": "> 200", "unit": "µM"},
      {"measurement": "solubility", "setting": "[17]", "value": 188, "unit": "µM"},
      {"measurement": "fraction unbound", "setting": "[4]", "value": 0.85},
      {"measurement": "fraction unbound", "setting": "[5]", "value": 0.82},
      {"measurement": "Papp A→B at 5 µM", "setting": "[6]", "value": 9.3, "unit": "×10⁻⁶ cm/s"},
      {"measurement": "Papp B→A at 5 µM", "setting": "[7]", "value": 5.7, "unit": "×10⁻⁶ cm/s"},
      {"measurement": "half-life", "setting": "[8]", "value": "> 1", "unit": "h"},
      {"measurement": "half-life", "setting": "[9]", "value": "> 1", "unit": "h"},
      {"measurement": "CLint scaled", "setting": "[10]", "value": "< 115", "unit": "mL/min/kg"},
      {"measurement": "CLint scaled", "setting": "[11]", "value": "< 115", "unit": "mL/min/kg"}
    ]}
  ]
}
